Read-outs that look alike come from different tables or passages of the source.
What was measured:
Format in all cases: in vivo
[1] = tested on: Beet Armyworm (Spodoptera exigua) ("BAW"), second instar larvae; assay: Bioassay on beet armyworm (BAW), 128-well diet tray assay; settings: Spodoptera exigua
Outline: (§1)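 Read-out: percent larval mortality per well, averaged over 8 wells. Incubation 25° C., 14:10 L:D photoperiod, 5–7 days, trays sealed with clear adhesive cover.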

[2] = tested on: Green Peach Aphid ("GPA") (Myzus persicae), wingless adult and nymph stages; assay: Bioassay on green peach aphid (GPA), foliar spray on infested cabbage seedlings; settings: Myzus persicae, foliar, 72 h
Outline: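 Cabbage seedlings with 2-3 true leaves, infested one day earlier with 20-50 wingless adult and nymph GPA, sprayed to runoff on both leaf sides; solvent check held 20% acetone/methanol (1:1). Live aphids counted after three days at about 25° C; corrected % control = 100*(X−Y)/X versus solvent check.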

[3] = tested on: Cabbage Looper (Trichoplusia ni) ("CL"), second instar larvae; assay: Bioassay on cabbage looper (CL), 128-well diet tray assay; settings: Trichoplusia ni
Outline: as §1

[4] = read-out: BAW (Biological Results, rating)
[5] = read-out: GPA (Biological Results, rating)
[6] = read-out: CL (Biological Results, rating)

COC(C)c1ccc(C)cc1N1C(=O)CS/C1=N\C(=O)Nc1ccc(-c2ncn(-c3cccc(C(F)(F)F)c3)n2)cc1F (stereo not drawn) [Compound J119, (Z)-1-(2-Fluoro-4-(1-(3-(trifluoromethyl)phenyl)-1H-1,2,4-triazol-3-yl)phenyl)-3-(3-(2-(1-methoxyethyl)-5-methylphenyl)-4-oxothiazolidin-2-ylidene)urea]
pest or weed control at 50 µg/cm2 [1, 4]: 50 to 100%
pest or weed control at 200 µg/mL [2, 5]: 0 to 80%
pest or weed control at 50 µg/cm2 [3, 6]: 50 to 100%

Cc1ccc(OCCC(F)(F)F)c(N2C(=O)CS/C2=N\C(=O)Nc2ccc(-c3ncn(-c4cccc(OC(F)(F)F)c4)n3)cc2C)c1 [Compound J138, (Z)-1-(3-(5-Methyl-2-(3,3,3-trifluoropropoxy)phenyl)-4-oxothiazolidin-2-ylidene)-3-(2-methyl-4-(1-(3-(trifluoromethoxy)phenyl)-1H-1,2,4-triazol-3-yl)phenyl)urea]
pest or weed control at 50 µg/cm2 [1, 4]: 50 to 100%
pest or weed control at 200 µg/mL [2, 5]: 0 to 80%
pest or weed control at 50 µg/cm2 [3, 6]: 50 to 100%

CNc1ccc(C(C)C)c(N2C(=O)CS/C2=N\C(=O)Nc2ccc(-c3ncn(-c4ccc(OC(F)(F)F)cc4)n3)cc2C)c1 [Compound J126, (Z)-1-(3-(2-Isopropyl-5-(methylamino)phenyl)-4-oxothiazolidin-2-ylidene)-3-(2-methyl-4-(1-(4-(trifluoromethoxy)phenyl)-1H-1,2,4-triazol-3-yl)phenyl)urea]
pest or weed control at 50 µg/cm2 [1, 4]: 50 to 100%
pest or weed control at 200 µg/mL [2, 5]: 0 to 80%
pest or weed control at 50 µg/cm2 [3, 6]: 50 to 100%

CC(C)c1ccc(N(C)C)cc1N1C(=O)CS/C1=N\C(=O)Nc1ccc(-c2ncn(-c3ccc(OC(F)(F)F)cc3)n2)cc1F [Compound J318, (Z)-1-(3-(5-(Dimethylamino)-2-isopropylphenyl)-4-oxothiazolidin-2-ylidene)-3-(2-fluoro-4-(1-(4-(trifluoromethoxy)phenyl)-1H-1,2,4-triazol-3-yl)phenyl)urea]
pest or weed control at 50 µg/cm2 [1, 4]: 50 to 100%
pest or weed control at 200 µg/mL [2, 5]: 0 to 80%
pest or weed control at 50 µg/cm2 [3, 6]: 50 to 100%

CC(C)c1ccc(N(C)C)cc1N1C(=O)CS/C1=N\C(=O)Nc1ccc(-c2ncn(-c3ccc(OC(F)(F)F)cc3)n2)cc1C(F)(F)F [Compound J116, (Z)-1-(3-(5-(Dimethylamino)-2-isopropylphenyl)-4-oxothiazolidin-2-ylidene)-3-(4-(1-(4-(trifluoromethoxy)phenyl)-1H-1,2,4-triazol-3-yl)-2-(trifluoromethyl)phenyl)urea]
pest or weed control at 50 µg/cm2 [1, 4]: 50 to 100%
pest or weed control at 200 µg/mL [2, 5]: 0 to 80%
pest or weed control at 50 µg/cm2 [3, 6]: 50 to 100%

Cc1ccc(C(C)C)c(N2C(=O)CS/C2=N\C(=O)Nc2ccc(-c3ncn(-c4cccc(OC(F)(F)F)c4)n3)cc2F)c1 [Compound J143, (Z)-1-(2-Fluoro-4-(1-(3-(trifluoromethoxy)phenyl)-1H-1,2,4-triazol-3-yl)phenyl)-3-(3-(2-isopropyl-5-methylphenyl)-4-oxothiazolidin-2-ylidene)urea]
pest or weed control at 50 µg/cm2 [1, 4]: 50 to 100%
pest or weed control at 200 µg/mL [2, 5]: 0 to 80%
pest or weed control at 50 µg/cm2 [3, 6]: 50 to 100%

Cc1ccc(OCCC(F)(F)F)c(N2C(=O)CS/C2=N\C(=O)Nc2ccc(-c3ncn(-c4cccc(C(F)(F)F)c4)n3)cc2C)c1 [Compound J134, (Z)-1-(3-(5-Methyl-2-(3,3,3-trifluoropropoxy)phenyl)-4-oxothiazolidin-2-ylidene)-3-(2-methyl-4-(1-(3-(trifluoromethyl)phenyl)-1H-1,2,4-triazol-3-yl)phenyl)urea]
pest or weed control at 50 µg/cm2 [1, 4]: 50 to 100%
pest or weed control at 200 µg/mL [2, 5]: 0 to 80%
pest or weed control at 50 µg/cm2 [3, 6]: 50 to 100%

CCc1cc(-c2ncn(-c3ccc(OC(F)(F)F)cc3)n2)ccc1NC(=O)/N=C1\SCC(=O)N1c1cc(C)ccc1C(C)C [Compound J70, (Z)-1-(2-Ethyl-4-(1-(4-(trifluoromethoxy)phenyl)-1H-1,2,4-triazol-3-yl)phenyl)-3-(3-(2-isopropyl-5-methylphenyl)-4-oxothiazolidin-2-ylidene)urea]
pest or weed control at 50 µg/cm2 [1, 4]: 50 to 100%
pest or weed control at 200 µg/mL [2, 5]: 0 to 80%
pest or weed control at 50 µg/cm2 [3, 6]: 50 to 100%

Cc1ccc(-n2cnc(-c3ccc(NC(=O)/N=C4\SCC(=O)N4c4cc(C)ccc4C(C)C)c(F)c3)n2)cc1 [Compound J148, (Z)-1-(2-Fluoro-4-(1-(p-tolyl)-1H-1,2,4-triazol-3-yl)phenyl)-3-(3-(2-isopropyl-5-methylphenyl)-4-oxothiazolidin-2-ylidene)urea]
pest or weed control at 50 µg/cm2 [1, 4]: 50 to 100%
pest or weed control at 200 µg/mL [2, 5]: 0 to 80%
pest or weed control at 50 µg/cm2 [3, 6]: 50 to 100%

Cc1cc(-c2ncn(-c3ccc(S(=O)(=O)C(F)(F)F)cc3)n2)ccc1NC(=O)/N=C1\SCC(=O)N1c1cc(N(C)C)ccc1C(C)C [Compound J366, (Z)-1-(3-(5-(Dimethylamino)-2-isopropylphenyl)-4-oxothiazolidin-2-ylidene)-3-(2-methyl-4-(1-(4-((trifluoromethyl)sulfonyl)phenyl)-1H-1,2,4-triazol-3-yl)phenyl)urea]
pest or weed control at 50 µg/cm2 ([1]; read-out: BAW rating): 50 to 100%
pest or weed control at 200 µg/mL ([2]; read-out: GPA rating): 0 to 80%
pest or weed control at 50 µg/cm2 ([3]; read-out: CL rating): 50 to 100%

COC(c1ccc(C)cc1N1C(=O)CS/C1=N\C(=O)Nc1ccc(-c2ncn(-c3ccc(SC(F)(F)F)cc3)n2)cc1F)C(F)(F)F (stereo not drawn) [Compound J229, (Z)-1-(2-Fluoro-4-(1-(4-((trifluoromethyl)thio)phenyl)-1H-1,2,4-triazol-3-yl)phenyl)-3-(3-(5-methyl-2-(2,2,2-trifluoro-1-methoxyethyl)phenyl)-4-oxothiazolidin-2-ylidene)urea]
pest or weed control at 50 µg/cm2 [1, 4]: 50 to 100%
pest or weed control at 200 µg/mL [2, 5]: 0 to 80%
pest or weed control at 50 µg/cm2 [3, 6]: 50 to 100%

COC(C)c1ccc(C)cc1N1C(=O)CS/C1=N\C(=O)Nc1ccc(-c2ncn(-c3ccc(C#N)cc3)n2)cc1F (stereo not drawn) [Compound J291, (Z)-1-(4-(1-(4-Cyanophenyl)-1H-1,2,4-triazol-3-yl)-2-fluorophenyl)-3-(3-(2-(1-methoxyethyl)-5-methylphenyl)-4-oxothiazolidin-2-ylidene)urea]
pest or weed control at 50 µg/cm2 [1, 4]: 50 to 100%
pest or weed control at 200 µg/mL [2, 5]: 0 to 80%
pest or weed control at 50 µg/cm2 [3, 6]: 50 to 100%

COC(C)c1ccc(C)cc1N1C(=O)CS/C1=N\C(=O)Nc1ccc(-c2ncn(-c3ccc(S(=O)(=O)C(F)(F)F)cc3)n2)cc1C (stereo not drawn) [Compound J362, (Z)-1-(3-(2-(1-Methoxyethyl)-5-methylphenyl)-4-oxothiazolidin-2-ylidene)-3-(2-methyl-4-(1-(4-((trifluoromethyl)sulfonyl)phenyl)-1H-1,2,4-triazol-3-yl)phenyl)urea]
pest or weed control at 50 µg/cm2 ([1]; read-out: BAW rating): 50 to 100%
pest or weed control at 200 µg/mL ([2]; read-out: GPA rating): 0 to 80%
pest or weed control at 50 µg/cm2 ([3]; read-out: CL rating): 50 to 100%

CC(C)c1cc(F)c(N(C)C)cc1N1C(=O)CS/C1=N\C(=O)Nc1ccc(-c2ncn(-c3ccc(C(F)(F)F)cc3)n2)cc1F [Compound J183, (Z)-1-(3-(5-(Dimethylamino)-4-fluoro-2-isopropylphenyl)-4-oxothiazolidin-2-ylidene)-3-(2-fluoro-4-(1-(4-(trifluoromethyl)phenyl)-1H-1,2,4-triazol-3-yl)phenyl)urea]
pest or weed control at 50 µg/cm2 [1, 4]: 50 to 100%
pest or weed control at 200 µg/mL [2, 5]: 0 to 80%
pest or weed control at 50 µg/cm2 [3, 6]: 50 to 100%

COC(C)c1ccccc1N1C(=O)CS/C1=N\C(=O)Nc1ccc(-c2ncn(-c3ccc(OC(F)(F)F)cc3)n2)cc1F (stereo not drawn) [Compound J87, (Z)-1-(2-Fluoro-4-(1-(4-(trifluoromethoxy)phenyl)-1H-1,2,4-triazol-3-yl)phenyl)-3-(3-(2-(1-methoxyethyl)phenyl)-4-oxothiazolidin-2-ylidene)urea]
pest or weed control at 50 µg/cm2 [1, 4]: 50 to 100%
pest or weed control at 200 µg/mL [2, 5]: 0 to 80%
pest or weed control at 50 µg/cm2 [3, 6]: 50 to 100%

CN(C)c1ccc(OCC(F)(F)F)c(N2C(=O)CS/C2=N\C(=O)Nc2ccc(-c3ncn(-c4ccc(OC(F)(F)F)cc4)n3)cc2F)c1 [Compound J193, (Z)-1-(3-(5-(Dimethylamino)-2-(2,2,2-trifluoroethoxy)phenyl)-4-oxothiazolidin-2-ylidene)-3-(2-fluoro-4-(1-(4-(trifluoromethoxy)phenyl)-1H-1,2,4-triazol-3-yl)phenyl)urea]
pest or weed control at 50 µg/cm2 [1, 4]: 50 to 100%
pest or weed control at 200 µg/mL [2, 5]: 0 to 80%
pest or weed control at 50 µg/cm2 [3, 6]: 50 to 100%

CCOc1ccc(C)cc1N1C(=O)CS/C1=N\C(=O)Nc1ccc(-c2ncn(-c3ccc(SC(F)(F)F)cc3)n2)cc1F [Compound J224, (Z)-1-(3-(2-Ethoxy-5-methylphenyl)-4-oxothiazolidin-2-ylidene)-3-(2-fluoro-4-(1-(4-((trifluoromethyl)thio)phenyl)-1H-1,2,4-triazol-3-yl)phenyl)urea]
pest or weed control at 50 µg/cm2 [1, 4]: 50 to 100%
pest or weed control at 200 µg/mL [2, 5]: 0 to 80%
pest or weed control at 50 µg/cm2 [3, 6]: 50 to 100%

CCc1cc(-c2ncn(-c3ccc(OC(F)(F)F)cc3)n2)ccc1NC(=O)/N=C1\SCC(=O)N1c1cc(C)ccc1C(C)OC (stereo not drawn) [Compound J74, (Z)-1-(2-Ethyl-4-(1-(4-(trifluoromethoxy)phenyl)-1H-1,2,4-triazol-3-yl)phenyl)-3-(3-(2-(1-methoxyethyl)-5-methylphenyl)-4-oxothiazolidin-2-ylidene)urea]
pest or weed control at 50 µg/cm2 [1, 4]: 50 to 100%
pest or weed control at 200 µg/mL [2, 5]: 0 to 80%
pest or weed control at 50 µg/cm2 [3, 6]: 50 to 100%

CC(C)c1ccc(N(C)C)cc1N1C(=O)CS/C1=N\C(=O)Nc1ccc(-c2ncn(-c3ccc(SC(F)(F)F)cc3)n2)cc1 [Compound J368, (Z)-1-(3-(5-(Dimethylamino)-2-isopropylphenyl)-4-oxothiazolidin-2-ylidene)-3-(4-(1-(4-((trifluoromethyl)thio)phenyl)-1H-1,2,4-triazol-3-yl)phenyl)urea]
pest or weed control at 50 µg/cm2 ([1]; read-out: BAW rating): 50 to 100%
pest or weed control at 200 µg/mL ([2]; read-out: GPA rating): 0 to 80%
pest or weed control at 50 µg/cm2 ([3]; read-out: CL rating): 50 to 100%

Reference: patent US20230077362A1 (CORTEVA AGRISCIENCE LLC, priority 2019, published 2023)
